Tested on: human vascular smooth muscle cells
Experiment: Determination of DNA synthesis inhibition activity (3H-thymidine intake) to human vascular smooth muscle cells
Type: cell-based
Conditions: for Growth inhibition rate (per cent to control): 1 × 10^−5 M compound added, 3H-thymidine intake after culturing 24 hours, compared with vehicle-treated group as control; for inhibiting activity on the growth of human vascular smooth muscle cells: summary in words of Table 1 (1 × 10^−5 M)
Description: Experiment [Determination of DNA synthesis inhibition activity of PGE1 derivatives to human vascular smooth muscle cells]
On a 24-well plate (manufactured by Corning Co.), 1×10^4 cells/well of quintic culture cells of vascular cells derived from normal human aorta (produced by Kurabo Co.) were inoculated and cultured for 2 days. The medium was exchanged from the growth medium (SG2: produced by Kurabo Co.) to the basal medium (SB2: produced by Kurabo Co.), and cultured for 24 hours, to which was added the growth medium (SG2) containing an ethanol solution of the test compound. ^3H-Thymidine (produced by Daiichi Chemicals Co.) was added in an amount of 0.01 mci/well and, after culturing for 24 hours, the cultured supernatant was removed by suction, followed by washing with a phosphate buffer solution (PBS). 5% Trichloroacetic acid (TCA) was added and, after allowing to stand at 4° C. for 20 minutes, the mixture was washed once with TCA. The mixture was washed with PBS, and dissolved in 0.5 M aqueous potassium hydroxide solution. Intake of ^3H-thymidine was determined using 20 μl of the aqueous potassium hydroxide solution dissolving the cells which incorporated ^3H-thymidine in the nucleus by means of a liquid scintillation counter (manufactured by Hewlett-Packard Co.).
Note: The test compounds were each used as an ethanol solution and compared with a vehicle-treated group as control.

SMILES | Growth inhibition rate (per cent to control) | inhibiting activity on the growth of human vascular smooth muscle cells
CCCC1(C(O)C/C=C/C2C(SCCO)CC(=O)C2CCCCCCC(=O)OC)CCC1 [Compound 23, (11S,16S)-11,15-dideoxy-11-(2-hydroxyethylthio)-16-hydroxy-17,17-trimethylene-PGE1 methyl ester] | 91.5 per cent to control | high inhibiting activity
CCCC1(C(O)C/C=C/C2C(SCCO)CC(=O)C2CCCC/C=C/C(=O)OC)CCC1 [Compound 29, (2E,11R,16R)-11,15-Dideoxy-11-(2-hydroxyethylthio)-16-hydroxy-17,17-trimethylene-2,3-didehydro-PGE1 methyl ester] | 100 per cent to control | high inhibiting activity
CCCC1(C(O)C/C=C/C2C(SCCO)CC(=O)C2CCCC/C=C/C(=O)OC)CCC1 [Compound 32, (2E,11R,16S)-11,15-Dideoxy-11-(2-hydroxyethylthio)-16-hydroxy-17,17-trimethylene-2,3-didehydro-PGE1 methyl ester] | 100 per cent to control | high inhibiting activity
CCCC1(C(O)C/C=C/C2C(SCCCO)CC(=O)C2CCCCCCC(=O)OC)CCC1 [Compound 41, (11R,16S)-11,15-Dideoxy-11-(3-hydroxypropylthio)-16-hydroxy-17,17-trimethylene-PGE1 methyl ester] | 93.2 per cent to control | high inhibiting activity
CCCC1(C(O)C/C=C/C2C(SCC(N)C(=O)OC)CC(=O)C2CCCCCCC(=O)OC)CCC1 [Compound 54, (11R,16S)-11,15-Dideoxy-11-[(2R)-2-methoxycarbonyl-2-aminoethylthio]-16-hydroxy-17,17-trimethylene-PGE1 methyl ester] | 100 per cent to control | high inhibiting activity
CCCC1(C(O)C/C=C/C2C(SCC(N)C(=O)OC)CC(=O)C2CCCCCCC(=O)OC)CCC1 [Compound 55, (11S,16S)-11,15-dideoxy-11-[(2R)-2-methoxycarbonyl-2-aminoethylthio]-16-hydroxy-17,17-trimethylene-PGE1 methyl ester] | 94.3 per cent to control | high inhibiting activity

From US6613932B1, “Prostaglandin derivatives” (Taisho Pharmaceutical Co., Ltd., priority 1999, dated 2003)
